{
  "source": "patent US20250296916A1",
  "about": "“BICYCLIC PIPERAZINONES AND THERAPEUTIC USES THEREOF” (Cytokinetics, Inc., priority 2022, published 2025)",
  "tested_on": "rabbit skeletal myofibrils (approximately 90% fast fibers)",
  "assay": "Activation of fast skeletal myofibrils (PUMA coupled-enzyme ATPase assay)",
  "assay_type": "biochemical",
  "details": "concentration at which the compound increased the enzymatic activity by 40%; calcium at pCa25; PM12 buffer pH 6.8",
  "method": "Preparation of fast skeletal myofibrils: Rabbit skeletal myofibrils were prepared based upon the method of Herrmann et al. (Biochem. 32 (28): 7255-7263 (1993). Myofibrils were prepared from rabbit psoas muscle purchased from Pel-Freez Biologicals (Arkansas) within 2 days of ordering, stored on ice. Minced muscle was homogenized in 10 volumes of ice-cold “standard” buffer (50 mM Tris, pH 7.4, 0.1 M KOAc, 5 mM KCl, 2 mM dithiothreitol (DTT), 0.2 mM phenylmethylsulfonyl fluoride (PMSF), 10 μM leupeptin, 5 μM pepstatin, and 0.5 mM sodium azide) containing 5 mM ethylenediaminetetraacetic acid (EDTA) and 0.5% Triton X-100 using an Omni-Macro homogenizer. Myofibrils were recovered by low speed centrifugation (3000 rpm for 10 minutes) and washed 2 times in the Triton X-100 containing buffer to ensure removal of cellular membrane. Following the Triton washes, myofibrils were washed 3 times in “standard” buffer containing 2 mM magnesium acetate. A final wash in assay buffer (12 mM piperazine-1,4-bis(2-ethanesulfonic acid) (PIPES), pH 6.8, 60 mM KCl, 1 mM DTT) was performed and brought to 10% sucrose for flash freezing in liquid nitrogen and storage at −80° C.\nActivation of Fast Skeletal Myofibrils: Fast fiber activators were identified by measuring the enzymatic activity of muscle myofibril preparations using the proprietary PUMA (trademark) (see, e.g., U.S. Pat. Nos. 6,410,254, 6,743,599, 7,202,051, and 7,378,254) assay system. Myofibril preparations consisted of rabbit skeletal muscle (approximately 90% fast fibers) that had been mechanically homogenized and washed with a detergent (Triton X-100) to remove cellular membranes. This preparation retained all of the sarcomeric components in a native conformation and the enzymatic activity was still regulated by calcium. Compounds were tested using a myofibril suspension and a level of calcium sufficient to increase enzymatic activity of the myofibrils to 25% of their maximal rate (termed pCa25). Enzymatic activity was tracked via a pyruvate kinase and lactate dehydrogenase-coupled enzyme system. This assay regenerates myosin-produced ADP into ATP by oxidizing NADH, producing an absorbance change at 340 nm. The buffering system was 12 mM PIPES, 2 mM MgCl2, 1 mM DTT at pH 6.8 (PM12 buffer). […] In Table 3, “Example Compound” refers to the compound labeled with the same number in Table 2.",
  "data": [
    {"molecule": "CC[C@H](C)[C@H]1C(=O)Nc2ccccc2N1C(=O)N1CC(O)C1", "note": "[Compound 101, (S)-3-((S)-sec-butyl)-4-(3-hydroxyazetidine-1-carbonyl)-3,4-dihydroquinoxalin-2(1H)-one]", "values": [
      {"measurement": "AC1.4", "value": 2.1, "unit": "µM"}
    ]},
    {"molecule": "CCC[C@H]1C(=O)Nc2ccccc2N1C(=O)Nc1ccc(C)cc1", "note": "[Compound 62, (S)-3-oxo-2-propyl-N-(p-tolyl)-3,4-dihydroquinoxaline-1(2H)-carboxamide]", "values": [
      {"measurement": "AC1.4", "value": 1.39, "unit": "µM"}
    ]},
    {"molecule": "CCC[C@H]1C(=O)Nc2ccccc2N1C(=O)c1cnn(CC)c1", "note": "[Compound 30, (S)-4-(1-ethyl-1H-pyrazole-4-carbonyl)-3-propyl-3,4-dihydroquinoxalin-2(1H)-one]", "values": [
      {"measurement": "AC1.4", "value": 0.42, "unit": "µM"}
    ]},
    {"molecule": "CC[C@H](C)[C@H]1C(=O)Nc2ccccc2N1C(=O)N1CC[C@H](O)C1", "note": "[Compound 106, (S)-3-((S)-sec-butyl)-4-((S)-3-hydroxypyrrolidine-1-carbonyl)-3,4-dihydroquinoxalin-2(1H)-one]", "values": [
      {"measurement": "AC1.4", "value": 1.77, "unit": "µM"}
    ]},
    {"molecule": "CCC[C@H]1C(=O)Nc2ccccc2N1C(=O)Nc1ccccc1F", "note": "[Compound 56, (S)-N-(2-fluorophenyl)-3-oxo-2-propyl-3,4-dihydroquinoxaline-1(2H)-carboxamide]", "values": [
      {"measurement": "AC1.4", "value": 0.42, "unit": "µM"}
    ]},
    {"molecule": "CCC[C@H]1C(=O)Nc2ccccc2N1C(=O)NC1CCCCC1", "note": "[Compound 46, (S)-N-cyclohexyl-3-oxo-2-propyl-3,4-dihydroquinoxaline-1(2H)-carboxamide]", "values": [
      {"measurement": "AC1.4", "value": 0.47, "unit": "µM"}
    ]},
    {"molecule": "CC[C@H](C)[C@H]1C(=O)Nc2ccccc2N1C(=O)N1CCCC1", "note": "[Compound 104, (S)-3-((S)-sec-butyl)-4-(pyrrolidine-1-carbonyl)-3,4-dihydroquinoxalin-2(1H)-one]", "values": [
      {"measurement": "AC1.4", "value": 1.31, "unit": "µM"}
    ]},
    {"molecule": "CC[C@H](C)[C@H]1C(=O)Nc2cnccc2N1C(=O)c1cccc(C)c1", "note": "[Compound 98, (S)-2-((S)-sec-butyl)-1-(3-methylbenzoyl)-1,4-dihydropyrido[3,4-b]pyrazin-3(2H)-one]", "values": [
      {"measurement": "AC1.4", "value": 0.13, "unit": "µM"}
    ]},
    {"molecule": "CCC[C@H]1C(=O)Nc2ccc(Cl)cc2N1C(=O)c1cnn(C)c1", "note": "[Compound 64, (S)-6-Chloro-4-(1-methyl-1H-pyrazole-4-carbonyl)-3-propyl-3,4-dihydroquinoxalin-2(1H)-one]", "values": [
      {"measurement": "AC1.4", "value": 0.24, "unit": "µM"}
    ]},
    {"molecule": "CC[C@H](C)[C@H]1C(=O)Nc2ccccc2N1C(=O)N1CCC[C@H](CO)C1", "note": "[Compound 116, (S)-3-((S)-sec-butyl)-4-((S)-3-(hydroxymethyl)piperidine-1-carbonyl)-3,4-dihydroquinoxalin-2(1H)-one]", "values": [
      {"measurement": "AC1.4", "value": 0.83, "unit": "µM"}
    ]},
    {"molecule": "CC[C@H](C)[C@H]1C(=O)Nc2ccccc2N1C(=O)N[C@H]1CCN(C)C1", "note": "[Compound 129, (S)-2-((S)-sec-butyl)-N-((S)-1-methylpyrrolidin-3-yl)-3-oxo-3,4-dihydroquinoxaline-1(2H)-carboxamide]", "values": [
      {"measurement": "AC1.4", "value": 1.3, "unit": "µM"}
    ]},
    {"molecule": "CCC[C@H]1C(=O)Nc2ccccc2N1C(=O)Nc1ccc(F)cc1", "note": "[Compound 58, (S)-N-(4-fluorophenyl)-3-oxo-2-propyl-3,4-dihydroquinoxaline-1(2H)-carboxamide]", "values": [
      {"measurement": "AC1.4", "value": 0.26, "unit": "µM"}
    ]},
    {"molecule": "CCC[C@H]1C(=O)Nc2ccccc2N1C(=O)c1ccc(N(C)CCC(F)(F)F)nc1", "note": "[Compound 44, (S)-4-(6-(methyl(3,3,3-trifluoropropyl)amino)nicotinoyl)-3-propyl-3,4-dihydroquinoxalin-2(1H)-one]", "values": [
      {"measurement": "AC1.4", "value": 2.61, "unit": "µM"}
    ]},
    {"molecule": "CC(C)C[C@H]1C(=O)Nc2ccccc2N1C(=O)c1cnn(C)c1", "note": "[Compound 68, (S)-3-isobutyl-4-(1-methyl-1H-pyrazole-4-carbonyl)-3,4-dihydroquinoxalin-2(1H)-one]", "values": [
      {"measurement": "AC1.4", "value": 0.16, "unit": "µM"}
    ]},
    {"molecule": "CCC[C@H]1C(=O)Nc2cccc(Br)c2N1C(=O)c1cnn(C)c1", "note": "[Compound 69, (S)-5-bromo-4-(1-methyl-1H-pyrazole-4-carbonyl)-3-propyl-3,4-dihydroquinoxalin-2(1H)-one]", "values": [
      {"measurement": "AC1.4", "value": 1.52, "unit": "µM"}
    ]},
    {"molecule": "CC[C@H](C)[C@H]1C(=O)Nc2ccccc2N1C(=O)c1cnn(C)c1", "note": "[Compound 63, (S)-3-((S)-sec-butyl)-4-(1-methyl-1H-pyrazole-4-carbonyl)-3,4-dihydroquinoxalin-2(1H)-one]", "values": [
      {"measurement": "AC1.4", "value": 0.04, "unit": "µM"}
    ]},
    {"molecule": "CC[C@H](C)[C@H]1C(=O)Nc2ccccc2N1C(=O)N(C)CCCO", "note": "[Compound 115, (S)-2-((S)-sec-butyl)-N-(3-hydroxypropyl)-N-methyl-3-oxo-3,4-dihydroquinoxaline-1(2H)-carboxamide]", "values": [
      {"measurement": "AC1.4", "value": 2.29, "unit": "µM"}
    ]},
    {"molecule": "CCC[C@H]1C(=O)Nc2ccccc2N1C(=O)CCc1ccccc1", "note": "[Compound 19, (S)-4-(3-phenylpropanoyl)-3-propyl-3,4-dihydroquinoxalin-2(1H)-one]", "values": [
      {"measurement": "AC1.4", "value": 1.46, "unit": "µM"}
    ]},
    {"molecule": "CC[C@H](C)[C@H]1C(=O)Nc2cccnc2N1C(=O)c1cnn(C)c1", "note": "[Compound 93, (S)-3-((S)-sec-butyl)-4-(1-methyl-1H-pyrazole-4-carbonyl)-3,4-dihydropyrido[2,3-b]pyrazin-2(1H)-one]", "values": [
      {"measurement": "AC1.4", "value": 1.73, "unit": "µM"}
    ]},
    {"molecule": "CC(C)C[C@H]1C(=O)Nc2cnccc2N1C(=O)c1cnn(C)c1", "note": "[Compound 96, (S)-2-isobutyl-1-(1-methyl-1H-pyrazole-4-carbonyl)-1,4-dihydropyrido[3,4-b]pyrazin-3(2H)-one]", "values": [
      {"measurement": "AC1.4", "value": 0.6, "unit": "µM"}
    ]},
    {"molecule": "CCC[C@H]1C(=O)Nc2ccccc2N1C(=O)c1ccc(F)c(F)c1", "note": "[Compound 21, (S)-4-(3,4-difluorobenzoyl)-3-propyl-3,4-dihydroquinoxalin-2(1H)-one]", "values": [
      {"measurement": "AC1.4", "value": 0.07, "unit": "µM"}
    ]},
    {"molecule": "CC[C@H](C)[C@H]1C(=O)Nc2ccccc2N1C(=O)CCO", "note": "[Compound 110, (S)-3-((S)-sec-butyl)-4-(3-hydroxypropanoyl)-3,4-dihydroquinoxalin-2(1H)-one]", "values": [
      {"measurement": "AC1.4", "value": 1.18, "unit": "µM"}
    ]},
    {"molecule": "CCC[C@H]1C(=O)Nc2ccccc2N1C(=O)c1cn[nH]c1", "note": "[Compound 71, (S)-3-propyl-4-(1H-pyrazole-4-carbonyl)-3,4-dihydroquinoxalin-2(1H)-one]", "values": [
      {"measurement": "AC1.4", "value": 0.54, "unit": "µM"}
    ]},
    {"molecule": "CCC[C@H]1C(=O)Nc2ccccc2N1C(=O)Nc1cccc(OC)c1", "note": "[Compound 54, (S)-N-(3-methoxyphenyl)-3-oxo-2-propyl-3,4-dihydroquinoxaline-1(2H)-carboxamide]", "values": [
      {"measurement": "AC1.4", "value": 0.31, "unit": "µM"}
    ]},
    {"molecule": "CC(C)[C@H]1C(=O)Nc2ccccc2N1C(=O)c1ccc(=O)n(C)c1", "note": "[Compound 81, (S)-3-isopropyl-4-(1-methyl-6-oxo-1,6-dihydropyridine-3-carbonyl)-3,4-dihydroquinoxalin-2(1H)-one]", "values": [
      {"measurement": "AC1.4", "value": 0.22, "unit": "µM"}
    ]},
    {"molecule": "CCC[C@H]1C(=O)Nc2ccccc2N1C(=O)c1cccs1", "note": "[Compound 15, (S)-3-propyl-4-(thiophene-2-carbonyl)-3,4-dihydroquinoxalin-2(1H)-one]", "values": [
      {"measurement": "AC1.4", "value": 0.17, "unit": "µM"}
    ]},
    {"molecule": "CC[C@H](C)[C@H]1C(=O)Nc2ccccc2N1C(N)=O", "note": "[Compound 99, (S)-2-((S)-sec-butyl)-3-oxo-3,4-dihydroquinoxaline-1(2H)-carboxamide]", "values": [
      {"measurement": "AC1.4", "value": 0.87, "unit": "µM"}
    ]},
    {"molecule": "CCC[C@H]1C(=O)Nc2ccccc2N1C(=O)c1ccc(N2CCC(F)(F)C2)nc1", "note": "[Compound 43, (S)-4-(6-(3,3-difluoropyrrolidin-1-yl)nicotinoyl)-3-propyl-3,4-dihydroquinoxalin-2(1H)-one]", "values": [
      {"measurement": "AC1.4", "value": 2.78, "unit": "µM"}
    ]},
    {"molecule": "CCC[C@H]1C(=O)Nc2ccccc2N1C(=O)c1ccc[nH]1", "note": "[Compound 9, (S)-3-propyl-4-(1H-pyrrole-2-carbonyl)-3,4-dihydroquinoxalin-2(1H)-one]", "values": [
      {"measurement": "AC1.4", "value": 0.74, "unit": "µM"}
    ]},
    {"molecule": "CC[C@H](C)[C@H]1C(=O)Nc2cnccc2N1C(=O)c1ccccc1", "note": "[Compound 97, (S)-1-benzoyl-2-((S)-sec-butyl)-1,4-dihydropyrido[3,4-b]pyrazin-3(2H)-one]", "values": [
      {"measurement": "AC1.4", "value": 0.28, "unit": "µM"}
    ]},
    {"molecule": "CCC[C@H]1C(=O)Nc2ccccc2N1C(=O)c1ccc(NC(C)=O)nc1", "note": "[Compound 22, (S)-N-(5-(3-oxo-2-propyl-1,2,3,4-tetrahydroquinoxaline-1-carbonyl)pyridin-2-yl)acetamide]", "values": [
      {"measurement": "AC1.4", "value": 2.76, "unit": "µM"}
    ]},
    {"molecule": "CC[C@H](C)[C@H]1C(=O)Nc2ccccc2N1C(=O)N1CC(F)C1", "note": "[Compound 112, (S)-3-((S)-sec-butyl)-4-(3-fluoroazetidine-1-carbonyl)-3,4-dihydroquinoxalin-2(1H)-one]", "values": [
      {"measurement": "AC1.4", "value": 1.01, "unit": "µM"}
    ]},
    {"molecule": "CCC[C@H]1C(=O)Nc2ccccc2N1C(=O)Nc1cccnc1", "note": "[Compound 47, (S)-3-oxo-2-propyl-N-(pyridin-3-yl)-3,4-dihydroquinoxaline-1(2H)-carboxamide]", "values": [
      {"measurement": "AC1.4", "value": 1.51, "unit": "µM"}
    ]},
    {"molecule": "CC[C@H](C)[C@H]1C(=O)Nc2ccccc2N1C(=O)c1ccc(=O)[nH]c1", "note": "[Compound 75, (S)-3-((S)-sec-butyl)-4-(6-oxo-1,6-dihydropyridine-3-carbonyl)-3,4-dihydroquinoxalin-2(1H)-one]", "values": [
      {"measurement": "AC1.4", "value": 0.05, "unit": "µM"}
    ]},
    {"molecule": "CCC[C@H]1C(=O)Nc2cccc(C3CC3)c2N1C(=O)c1ccc(C)nc1", "note": "[Compound 7, (S)-5-Cyclopropyl-4-(6-methylnicotinoyl)-3-propyl-3,4-dihydroquinoxalin-2(1H)-one]", "values": [
      {"measurement": "AC1.4", "value": 0.96, "unit": "µM"}
    ]}
  ]
}
